Measurements from patent US7109175B1, “Specific steady-state R-type CA2+ channel blockers and use thereof” (Universite de Sherbrooke, priority 2000, dated 2006).
“Also recorded” adds a separate entry of the source.

Columns and labels:
[1] = tested on: TTX-sensitive fast Na^+ current; assay: Whole-cell voltage clamp, TTX-sensitive fast Na+ current in heart cells; type: cell-based, chick
Procedure: Single cells of different types in culture were prepared from biopsies of human, chick and rabbit. Known and accepted methods for the isolation of fast Na^+ current, T, L and R-type Ca^2+ channels as well as delayed outward K^+ current were used (Bkaily 1994, supra).
The compounds to be tested are added to the appropriate extracellular solution after recording a stable ionic current or normal steady-state level of […]. The effect of different concentrations of compounds are tested on the different type of current and [Ca]i of the different cell types. The effect of each concentration of the compounds in function of the time of exposure are then determined. Once the steady-state effect is reached, the second concentration is added, etc.
In one series of experiments (n=5), the effect of different concentrations of MV8608 (10^−11M to 10^−7M) on the TTX-sensitive fast Na^+ current were tested using the whole-cell voltage clamp technique and experimental conditions reported elsewhere (Bkaily et al., 1988, supra; 1993, supra).
In a series of experiments (n=5), we tested the effect of another MV compound MV8612 on the TTX-sensitive fast Na^+ current (INa) of embryonic chick heart cells using the whole-cell voltage clamp technique described above.

R-type Ca^2+ channel = assay: Fura-2 [Ca]i, human aortic vascular smooth muscle cells (cell line and freshly isolated); type: cell-based; settings: for sustained increase of [Ca]i induced by high PAF: PAF 10^−7M
Text: This sustained increase of Ca^2+ induced by depolarization of the cell membrane or hormones such as PAF, ET-1 and bradykinin is due to the increase of Ca^2+ influx through the R-type Ca^2+ channels at the sarcolemmal membrane and/or the nuclear membrane (Bkaily G., 1994, supra; 1996, supra; 1997a–d, supra). Using Ca^2+ fluorescence probes Fura-2 or Fluo-3 and 2 and three-dimension Ca^2+ imaging techniques (Bkaily G., 1994, supra; 1996, supra; 1997a–d, supra), the effect of hormones and drugs could be easily tested. These two methods are used with single cells of different types as described above.
In another series of experiments we tested the effect of MV8608 (10^−9M) on R-type Ca^2+ channels stimulation-induced sustained increase of total intracellular Ca^2+ by sustained depolarization (FIGS. 15 to 19), by PAF (10^−9M) (FIGS. 16 to 19 and 21 to 22), by ET-1 (10^−9M) (FIGS. 16 and 19) and bradykinin (BK, 10^−6M) (FIGS. 20 and 21), in embryonic chick heart cells (FIGS. 15, 16, 19 and 20), 19-week-old human fetal heart cells (FIGS. 15, 17, 18 and 20), rabbit aortic vascular smooth muscle (VSM) cells (FIGS. 20 and 21), human aortic VSM cell-line (FIG. 23) and freshly isolated (FIG. 22) as well as in freshly isolated aortic endothelial cells (FIG. 22).
In some experiments, the stimulation of the R-type Ca^2+ channel was elevated by increasing the concentration of PAF from 10^−9M up to 10^−7. […] Only a concentration of 10^−6M of MV8608 was able to block the high PAF effect on the sustained increase of [Ca]i (FIG. 23).
Using Fura-2 [Ca]i measurement technique, in one series of experiments we tested the effect of MV8612 (10^−9M) on the stimulation of R-type Ca^2+-induced sustained increase of [Ca]i by sustained depolarization (FIGS. 26 and 27), PAF (10^−9M, FIG. 34) and ET-1 (FIGS. 33 and 34).

pleurisy in mice = assay: Murine model of pleurisy; type: in vivo; settings: for neutrophil cells, carrageenan pleurisy / total cells, carrageenan pleurisy: MV 8612 30 and 60, MV 8608 30, i.p.
Procedure: To assess further the anti-inflammatory action of MV 8612 and MV 8608, their effects against the inflammatory responses caused by several mediators of inflammation in a murine model of pleurisy were tested (Saleh et al., 1996, Br. J. Pharmacol. 118:811–819). In addition, both compounds were tested against the increase of vascular permeability caused by bradykinin in the rat skin (Neves et al., 1993b, Phytotherapy Research. 7:356–362).

rat paw oedema = assay: Rat paw oedema; type: in vivo; settings: for des-Arg^9-bradykinin-induced paw oedema: 10 and 100 nmol/paw co-injected, rats treated with LPS
Procedure: In this experiment (N=5 to 6 animals per group), the anti-oedemagenic action of compounds MV 8608 and MV 8612 against bradykinin and several mediators which are reported to be involved in the inflammatory processes, was evaluated. The procedures used to perform these experiments have been reported elsewhere (Neves et al., 1993, Eur. J. Pharmacol. 243:213–219; Campos et al., 1995, Br. J. Pharmacol. 114:1005–1013; Campos et al., 1996, Br. J. Pharmacol. 117:793–798; Eur. J. Pharmacol. 316:227–286). […] As reported previously, in rats treated […] prior to a systemic injection of LPS, both B1 and B2 kinin selective agonists caused marked oedema formation (FIGS. 37C and D (Campos et al., 1996, supra)).

[2] = tested on: writhing response in mice; assay: Writhing response in mice (acetic acid, acetylcholine, kaolin); type: in vivo; settings: for acetic acid, acetylcholine and kaolin-induced writhing response: MV 8612 0.25 to 2.5, MV 8608 2.7, i.p., 30 min prior
Text: The antinociceptive actions of compound MV 8612 and MV 8608 were investigated in different models of nociception in mice as reported previously (Vaz et al., 1996, J. Pharmacol. Exp. Ther. 278:304–312).

[3] = 100 nmol/paw, rats treated 30 days prior

Compound: C[C@]12CC[C@H](O)CC1=CC[C@@H]1[C@@H]2CC[C@]2(C)[C@H]3[C@@H]4OC[C@H]3O[C@@H](O)[C@]12O4 [MV8608, (15R, 16R, 20S)-14, 16:15,20:16,21-triepoxi-15,16-seco 14β, 17α-pregn-5-ene-3β, 15-diol]
- effect on TTX-sensitive fast Na+ current ([1]; 10^−11M to 10^−7M, single heart cell, n=5): no effect; also recorded: absence of the effect
- PAF induced sustained increase of [Ca]i (R-type Ca^2+ channel; 10^−9M, PAF 10^−9M, freshly isolated human aortic VSM cells): blockade
- sustained increase of [Ca]i induced by high PAF (R-type Ca^2+ channel; MV8608 10^−6M, human aortic VSM cell line): able to block; also recorded: blockade
- sustained increase of [Ca]i induced by high PAF (R-type Ca^2+ channel; MV8608 10^−9M): failed to significantly decrease
- mononuclear cells influx, PAF pleurisy (pleurisy in mice; 30, i.p.): antagonised significantly
- plasma extravasation, PAF pleurisy (pleurisy in mice; 30, i.p.): antagonised significantly
- neutrophil cells, carrageenan pleurisy (pleurisy in mice): inhibited significantly
- total cells, carrageenan pleurisy (pleurisy in mice): inhibited significantly
- PAF-induced paw oedema (rat paw oedema; 100 nmol/paw): consistently inhibited
- PGE2-induced paw oedema (rat paw oedema; 100 nmol/paw): partially inhibited
- substance P-induced paw oedema (rat paw oedema; 100 nmol/paw): unaffected
- bradykinin-induced paw oedema (rat paw oedema; [3]): significantly inhibited
- des-Arg^9-BK-induced paw oedema (rat paw oedema; [3]): significantly inhibited
- carrageenan-induced paw oedema (rat paw oedema; 10 and 100 nmol/paw): significantly prevented
- dextran-induced paw oedema (rat paw oedema; 10 and 100 nmol/paw): significantly prevented
- histamine-induced paw oedema (rat paw oedema; 10 and 100 nmol/paw): significantly prevented
- potentiation of paw oedema by low dose des-Arg^9-BK plus PAF (rat paw oedema; 10 and 100 nmol/paw): prevented the potentiation
- potentiation of paw oedema by low dose des-Arg^9-BK plus PGE2 (rat paw oedema; 10 and 100 nmol/paw): prevented the potentiation
- serotonin-induced paw oedema (rat paw oedema; 10 and 100 nmol/paw): significantly prevented
- des-Arg^9-bradykinin-induced paw oedema (rat paw oedema): dose-related inhibition
- ovalbumin-induced paw oedema (rat paw oedema; 10 and 100 nmol/paw, actively sensitised animals): inhibited significantly
- bradykinin-induced hindpaw oedema (rat paw oedema; 10 and 100 nmol/paw, animals treated with LPS): no significant effect
- acetic acid, acetylcholine and kaolin-induced writhing response [2]: only partial or even no antinociceptive action

Compound: COC1CC(OC2C(C)OC(O[C@H]3CC[C@@]4(C)C(=CC[C@@H]5[C@@H]4CC[C@]4(C)[C@H]6[C@@H]7OC[C@H]6O[C@@H](O)[C@]54O7)C3)CC2OC)OC(C)C1OC1CC(OC)C(OC2CC(OC)C(OC3OC(C)C(OC(C)=O)C(OC)C3OC(C)=O)C(C)O2)C(C)O1 (stereo partly drawn) [MV8612]
- further decrease of INa amplitude ([1]; 10^−7M, embryonic chick heart cells): no further decrease
- decrease of INa amplitude ([1]; 10^−8M, embryonic chick heart cells): 15%
- effect on fast Na+ current ([1]; 10^−9M, embryonic chick heart cells): had no effect
- prevention of sustained increase of [Ca]i (R-type Ca^2+ channel; 10^−8M, KCl 30 mM and PAF 10^−7M, human aortic VSM cell line): found to prevent; also recorded: preventive effect
- plasma extravasation, carrageenan pleurisy (pleurisy in mice; 30 and 60, i.p., 1 h prior): significantly inhibited
- neutrophil cells, carrageenan pleurisy (pleurisy in mice): significantly inhibited
- total cells, carrageenan pleurisy (pleurisy in mice): significantly inhibited
- inflammatory response caused by PAF acether (pleurisy in mice; same range of dose, i.p.): did not affect significantly
- oedema by bradykinin plus PAF (rat paw oedema; 10 nmol/paw): did not interfere
- oedema by low dose bradykinin plus PGE2 (rat paw oedema; 10 nmol/paw): significantly inhibited
- oedema by low dose bradykinin plus calcitonin gene related peptide (rat paw oedema; 10 nmol/paw): significantly inhibited
- oedema by low dose bradykinin plus prostacyclin (rat paw oedema; 10 nmol/paw): significantly inhibited
- PAF-mediated paw oedema (rat paw oedema; 10 and 100 nmol/paw): only a minimal inhibition
- PGE2-induced paw oedema (rat paw oedema; 10 and 100 nmol/paw): dose-dependently inhibited
- bradykinin-induced paw oedema (rat paw oedema; 10 and 100 nmol/paw): significantly inhibited
- carrageenan-induced paw oedema (rat paw oedema; 10 and 100 nmol/paw): dose-dependently inhibited
- substance P-mediated paw oedema (rat paw oedema; 10 and 100 nmol/paw): only a minimal inhibition
- tyr^8-bradykinin-induced paw oedema (rat paw oedema; 10 and 100 nmol/paw): significantly inhibited
- des-Arg^9-bradykinin-induced paw oedema (rat paw oedema): no significant effect
- bradykinin-induced oedema in animals treated with cyprohetadine or compound 48/80 (rat paw oedema; intraperitoneal injection (FIG. 44)): dose-related inhibition was still observed
- duration of inhibition of bradykinin oedema (rat paw oedema; subplantar): at least 2 h
- onset of inhibition of bradykinin oedema (rat paw oedema; subplantar): 30 min
- bradykinin oedema in controlateral paw treated with saline (rat paw oedema; systemic effect of subplantar injection): significant anti-oedemagenic action
- acetic acid, acetylcholine and kaolin-induced writhing response [2]: dose-dependent inhibition
- acetic acid-induced writhes, i.c.v. ([2]; MV 8612 4.2 to 42 nmol/site, morphine 0.26 to 13 nmol/site): dose-related antinociception
- ID50 ACETIC ACID ([2]; i.p., mice, acetic acid-induced writhes): 2.4 (1.9–2.6) μmol/kg
- ID50 ACETYLCHOLINE ([2]; i.p., mice, acetylcholine-induced writhes): 2.2 (2.0–2.3) μmol/kg
- ID50 KAOLIN ([2]; i.p., mice, kaolin-induced writhes): 0.4 (0.3–0.6) μmol/kg
- potency versus morphine, i.c.v., acetic acid-induced writhes ([2]; less potent than morphine): about 12 fold
- potency against kaolin-induced pain versus the other writhing models ([2]; more potent): about 2 fold
- potency versus morphine and indomethacin, kaolin-induced writhes ([2]; more potent): about 2 fold
